According to PubChem BioAssay (NCI):
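Assay format: 96-well plates, 48-hour exposure. GI50 marks 50% less growth. At the TGI there is no net growth.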

Key:
Assay in all cases: growth of human tumour cells (NCI), 48 h
[1] = tested on: 786-0 renal
[2] = tested on: A498 renal
[3] = tested on: A549 NSCLC
[4] = tested on: ACHN renal
[5] = tested on: BT-549 breast
[6] = tested on: CAKI-1 renal
[7] = tested on: CCRF-CEM leukemia
[8] = tested on: COLO 205 colon
[9] = tested on: DU-145 prostate
[10] = tested on: EKVX NSCLC
[11] = tested on: HCC-2998 colon
[12] = tested on: HCT-116 colon
[13] = tested on: HCT-15 colon
[14] = tested on: HL-60(TB) leukemia
[15] = tested on: HOP-62 NSCLC
[16] = tested on: HOP-92 NSCLC
[17] = tested on: HS 578T breast
[18] = tested on: HT29 colon
[19] = tested on: IGROV1 ovarian
[20] = tested on: K-562 leukemia
[21] = tested on: KM12 colon
[22] = tested on: LOX IMVI melanoma
[23] = tested on: M14 melanoma
[24] = tested on: MALME-3M melanoma
[25] = tested on: MCF7 breast
[26] = tested on: MDA-MB-231 breast
[27] = tested on: MDA-MB-435
[28] = tested on: MDA-N
[29] = tested on: MOLT-4 leukemia
[30] = tested on: NCI-H226 lung
[31] = tested on: NCI-H23 lung
[32] = tested on: NCI-H460 lung
[33] = tested on: NCI-H522 lung
[34] = tested on: NCI/ADR-RES ovarian
[35] = tested on: OVCAR-3 ovarian
[36] = tested on: OVCAR-4 ovarian
[37] = tested on: OVCAR-5 ovarian
[38] = tested on: OVCAR-8 ovarian
[39] = tested on: PC-3 prostate
[40] = tested on: RPMI-8226 leukemia
[41] = tested on: RXF 393 renal
[42] = tested on: SF-268 CNS
[43] = tested on: SF-295 CNS
[44] = tested on: SF-539 CNS
[45] = tested on: SK-MEL-2 melanoma
[46] = tested on: SK-MEL-28 melanoma
[47] = tested on: SK-MEL-5 melanoma
[48] = tested on: SK-OV-3 ovarian
[49] = tested on: SN12C renal
[50] = tested on: SNB-19 CNS
[51] = tested on: SNB-75 CNS
[52] = tested on: SR leukemia
[53] = tested on: SW-620 colon
[54] = tested on: T-47D breast
[55] = tested on: TK-10 renal
[56] = tested on: U251 CNS
[57] = tested on: UACC-257 melanoma
[58] = tested on: UACC-62 melanoma
[59] = tested on: UO-31 renal
[60] = tested on: DLD-1 colon
[61] = tested on: DMS 273 small cell lung
[62] = tested on: HOP-18 NSCLC
[63] = tested on: KM20L2 colon
[64] = tested on: LXFL 529 NSCLC
[65] = tested on: SNB-78 CNS
[66] = tested on: DMS 114 small cell lung
[67] = tested on: M19-MEL melanoma

`CC1(C)CCCC2CC2CCC(C)(C)C1=O` (stereo not drawn) was tested, and the TGI [1] was 86.6 µM, the TGI [2] was > 100 µM and the TGI [3] was > 100 µM. The TGI [4] was > 100 µM, the TGI [5] was > 100 µM and the TGI [6] was > 100 µM. For the same compound, the TGI [7] was 38.4 µM, the TGI [8] was 39 µM and the TGI [9] was > 100 µM. For the same compound, the TGI [10] was > 100 µM, the TGI [11] was 21.7 µM and the TGI [12] was > 100 µM. For the same compound, the TGI [13] was > 100 µM, the TGI [14] was 41.2 µM and the TGI [15] was > 100 µM. For the same compound, the TGI [16] was > 100 µM, the TGI [17] was > 100 µM and the TGI [18] was > 100 µM. For the same compound, the TGI [19] was > 100 µM, the TGI [20] was 40.1 µM and the TGI [21] was > 100 µM. The TGI [22] was > 100 µM, the TGI [23] was > 100 µM and the TGI [24] was > 100 µM. The TGI [25] was 75.8 µM, the TGI [26] was > 100 µM and the TGI [27] was > 100 µM. For the same compound, the TGI [28] was > 100 µM, the TGI [29] was 83.1 µM and the TGI [30] was > 100 µM. For the same compound, the TGI [31] was > 100 µM, the TGI [32] was > 100 µM and the TGI [33] was > 100 µM. The TGI [34] was > 100 µM, the TGI [35] was 82.7 µM and the TGI [36] was > 100 µM. The TGI [37] was > 100 µM, the TGI [38] was > 100 µM and the TGI [39] was > 100 µM. For the same compound, the TGI [40] was 68.1 µM, the TGI [41] was 87.7 µM and the TGI [42] was > 100 µM. For the same compound, the TGI [43] was > 100 µM, the TGI [44] was > 100 µM and the TGI [45] was > 100 µM. For the same compound, the TGI [46] was > 100 µM, the TGI [47] was > 100 µM and the TGI [48] was > 100 µM. For the same compound, the TGI [49] was > 100 µM, the TGI [50] was > 100 µM and the TGI [51] was > 100 µM. The TGI [52] was 45.6 µM, the TGI [53] was > 100 µM and the TGI [54] was > 100 µM. The TGI [55] was > 100 µM, the TGI [56] was 37.3 µM and the TGI [57] was > 100 µM. For the same compound, the TGI [58] was > 100 µM and the TGI [59] was > 100 µM.

In the case of `N.N.N.N.N.N#Cc1nn[n-]n1.[Cl-].[Co+3]`, the GI50 [1] is reported as > 100 µM, the TGI [1] is reported as > 100 µM and the GI50 [3] is reported as > 100 µM. The TGI [3] was > 100 µM, the GI50 [4] was > 100 µM and the TGI [4] was > 100 µM. The GI50 [6] was > 100 µM, the TGI [6] was > 100 µM and the GI50 [7] was > 100 µM. The TGI [7] was > 100 µM, the GI50 [8] was > 100 µM and the TGI [8] was > 100 µM. The GI50 [60] was > 100 µM, the TGI [60] was > 100 µM and the GI50 [61] was > 100 µM. The TGI [61] was > 100 µM, the GI50 [10] was > 100 µM and the TGI [10] was > 100 µM. The GI50 [11] was > 100 µM, the TGI [11] was > 100 µM and the GI50 [12] was > 100 µM. For the same compound, the TGI [12] was > 100 µM, the GI50 [13] was > 100 µM and the TGI [13] was > 100 µM. The GI50 [14] was > 100 µM, the TGI [14] was > 100 µM and the GI50 [62] was > 100 µM. The TGI [62] was > 100 µM, the GI50 [15] was > 100 µM and the TGI [15] was > 100 µM. For the same compound, the GI50 [16] was > 100 µM, the TGI [16] was > 100 µM and the GI50 [18] was > 100 µM. For the same compound, the TGI [18] was > 100 µM, the GI50 [19] was > 100 µM and the TGI [19] was > 100 µM. The GI50 [20] was > 100 µM, the TGI [20] was > 100 µM and the GI50 [21] was > 100 µM. For the same compound, the TGI [21] was > 100 µM, the GI50 [63] was > 100 µM and the TGI [63] was > 100 µM. The GI50 [22] was > 100 µM, the TGI [22] was > 100 µM and the GI50 [64] was > 100 µM. For the same compound, the TGI [64] was > 100 µM, the GI50 [23] was > 100 µM and the TGI [23] was > 100 µM. For the same compound, the GI50 [24] was > 100 µM, the TGI [24] was > 100 µM and the GI50 [29] was > 100 µM. The TGI [29] was > 100 µM, the GI50 [31] was > 100 µM and the TGI [31] was > 100 µM. The GI50 [32] was > 100 µM, the TGI [32] was > 100 µM and the GI50 [35] was > 100 µM. For the same compound, the TGI [35] was > 100 µM, the GI50 [36] was > 100 µM and the TGI [36] was > 100 µM. For the same compound, the GI50 [37] was > 100 µM, the TGI [37] was > 100 µM and the GI50 [38] was > 100 µM. The TGI [38] was > 100 µM, the GI50 [40] was > 100 µM and the TGI [40] was > 100 µM. The GI50 [41] was > 100 µM, the TGI [41] was > 100 µM and the GI50 [42] was > 100 µM. For the same compound, the TGI [42] was > 100 µM, the GI50 [43] was > 100 µM and the TGI [43] was > 100 µM. The GI50 [44] was > 100 µM, the TGI [44] was > 100 µM and the GI50 [45] was > 100 µM. For the same compound, the TGI [45] was > 100 µM, the GI50 [46] was > 100 µM and the TGI [46] was > 100 µM. The GI50 [47] was > 100 µM, the TGI [47] was > 100 µM and the GI50 [48] was > 100 µM. The TGI [48] was > 100 µM, the GI50 [49] was > 100 µM and the TGI [49] was > 100 µM. The GI50 [50] was > 100 µM, the TGI [50] was > 100 µM and the GI50 [51] was > 100 µM. For the same compound, the TGI [51] was > 100 µM, the GI50 [65] was > 100 µM and the TGI [65] was > 100 µM. For the same compound, the GI50 [52] was > 100 µM, the TGI [52] was > 100 µM and the GI50 [53] was > 100 µM. The TGI [53] was > 100 µM, the GI50 [55] was > 100 µM and the TGI [55] was > 100 µM. For the same compound, the GI50 [56] was > 100 µM, the TGI [56] was > 100 µM and the GI50 [57] was > 100 µM. For the same compound, the TGI [57] was > 100 µM, the GI50 [58] was > 100 µM and the TGI [58] was > 100 µM. For the same compound, the GI50 [59] was > 100 µM and the TGI [59] was > 100 µM.

With `CO[C@H](C(=O)O[C@H]1C(=O)N2CC[C@@H]3CCC[C@H]1C32C)c1ccccc1` (stereo partly drawn) the TGI [1] was > 100 µM, the TGI [3] was > 100 µM and the TGI [4] was > 100 µM. For the same compound, the TGI [6] was > 100 µM, the TGI [7] was > 100 µM and the TGI [8] was > 100 µM. For the same compound, the TGI [60] was > 100 µM, the TGI [66] was > 100 µM and the TGI [10] was > 100 µM. For the same compound, the TGI [11] was > 100 µM, the TGI [12] was > 100 µM and the TGI [14] was > 100 µM. The TGI [15] was > 100 µM, the TGI [18] was > 100 µM and the TGI [19] was > 100 µM. For the same compound, the TGI [20] was > 100 µM, the TGI [21] was > 100 µM and the TGI [63] was > 100 µM. For the same compound, the TGI [22] was > 100 µM, the TGI [64] was > 100 µM and the TGI [23] was > 100 µM. The TGI [67] was > 100 µM, the TGI [24] was > 100 µM and the TGI [29] was > 100 µM. The TGI [30] was > 100 µM, the TGI [31] was > 100 µM and the TGI [32] was > 100 µM. The TGI [33] was > 100 µM, the TGI [35] was > 100 µM and the TGI [36] was > 100 µM. The TGI [37] was > 100 µM, the TGI [38] was > 100 µM and the TGI [40] was > 100 µM. For the same compound, the TGI [41] was > 100 µM, the TGI [42] was > 100 µM and the TGI [43] was > 100 µM. The TGI [44] was > 100 µM, the TGI [45] was > 100 µM and the TGI [46] was > 100 µM. For the same compound, the TGI [47] was > 100 µM, the TGI [48] was > 100 µM and the TGI [49] was > 100 µM. The TGI [50] was > 100 µM, the TGI [65] was > 100 µM and the TGI [52] was > 100 µM. For the same compound, the TGI [53] was > 100 µM, the TGI [56] was > 100 µM and the TGI [57] was > 100 µM. The TGI [58] was > 100 µM and the TGI [59] was > 100 µM.
